Test results: patent US20230250070A1, “DIHYDROOXAZOLE AND THIOUREA DERIVATIVES MODULATING THE NLRP3 INFLAMMASOME PATHWAY” (AC IMMUNE SA, priority 2020, published 2023)

How the values were obtained:
[1] = test system: NLRP3 inflammasome pathway; experiment: LPS-ATP induced peritonitis mouse model, IL-1β in peritoneal lavage; type: in vivo, C57BL/6 female mice; conditions: for inhibition of IL-1β release in peritoneal lavage samples (FIG. 1): mice dosed 1 mg/kg or 3 mg/kg by intraperitoneal injection, n=6, p<0.0001 vs vehicle-treated group; for % IL-1 beta inhibition vs vehicle (peritoneal lavage samples): mice, intraperitoneal 1 mg/kg or 3 mg/kg (dose not given), 15 min before ATP
Experimental: C57BL/6 female mice aged 6 to 8 weeks were randomized into experimental groups. Mice were challenged intraperitoneally with 50 µg/kg LPS. Two hours later, mice received i.p. 200 µL of ATP (Adenosine TriPhosphate) 50 mM, pH 7.2. Compounds were administered intraperitoneally at 1 mg/kg or 3 mg/kg, 15 minutes before ATP injection. Thirty minutes after ATP injection, animals were sacrificed by CO2. Cardiac blood was collected through heart puncture. Peritoneal lavage was performed with a total volume of 4 mL of sterile saline solution with intact peritoneum. IL-1b levels were assessed in peritoneal lavage samples via AlphaLisa. Results were expressed as % reduction compared to vehicle-treated group.
(§1) For IL-1β quantification, supernatants were analyzed using AlphaLISA kits according to the manufacturer’s instructions (Perkin Elmer AlphaLISA AL220F). Briefly, in a 384-well OptiPlate™ microplate, 5 µl of sample was mixed, with 20 µl of AlphaLISA Anti-Analyte Acceptor beads (10 µg/mL final) and Biotinylated Antibody Anti-Analyte (1 nM final). Then, incubated 60 minutes at RT, then 25 µL of 2X SA-Donor beads (40 µg/mL final) were added and incubated 30 minutes at RT in the dark. Reading was done using an EnVision-Alpha Reader (PerkinElmer).

[2] = test system: NLRP3 inflammasome pathway; experiment: NLRP3 inflammasome pathway activation assay, MSU stimulation, IL-1β release (AlphaLISA); type: cell-based; conditions: PMA-differentiated, LPS-primed human monocyte-like cells, MSU 150 µg/ml for 3 h
[3] = test system: NLRP3 inflammasome pathway; experiment: Human whole blood assay (LPS-ATP), IL-1β levels by AlphaLISA; type: cell-based; conditions: LPS priming, ATP activation 1 h, IL-1β in plasma
Experimental: • Preliminary blood hemolysis assessment was performed before running the assay. Blood samples were centrifuged at 1000 g for 10 min. Then, 50 to 100 µL of blood were transferred into Corning™96-Well Clear flat bottom plate. Hemolysis was assessed via Tecan at 414 nm wavelength. Hemolysis O.D. values should be lower than 1. • Add 10 µL LPS 9× or CTRL following plate layout. • Add 80 µL of each whole blood/well in PP low-bind 96-well plate. • Incubate for 2h30 to 3 h at 37° C. and 5% CO2. • Add 10 µL of compounds 10× or control in wells following plate layout. • Incubate for 30 min at 37° C. and 5% CO2. • Add 11 µL ATP 10× or control in all wells following plate layout. • Incubate for 1 h at 37° C. and 5% CO2. • Collect 1 h timepoint → Centrifuge the plate 1000 g 10 min, collect the plasma (40 to 50 µL) and store at -20° C. • Measure IL-1β levels by AlphaLISA
as §1
(§2) IC50(concentration corresponding to 50% inhibition) were determined using GraphPad Prism 8.

[4] = test system: NLRP3 inflammasome pathway; experiment: NLRP3 inflammasome pathway activation assay, Nigericin stimulation, IL-1β release (AlphaLISA); type: cell-based; conditions: PMA-differentiated, LPS-primed human monocyte-like cells, Nigericin 3.75 µM for 3 h
Experimental: The following assays were used to determine the inhibitory activity of test compounds on the NLRP3 inflammasome pathway using common stimuli Nigericin (Invivogen) or monosodium urate crystals (MSU) (Invivogen).
Human monocyte-like cells were cultured in RPMI-1640 Glutamax medium supplemented with 10% heat inactivated FCS and 50 U/ml penicillin-streptomycin (Life Technologies).
Human monocyte-like cells were seeded at 75000 per well in a 96-well plate and were differentiated overnight into macrophages with 10 ng/ml PMA (Phorbol Myristate Acetate). The following day, medium containing 10 ng/ml LPS (Lipopolysaccharide) were added. After 3 hours of LPS priming, concentrations of test compound in the range from 100 µM to 6 nM were added 30 min prior to NLRP3 inflammasome pathway stimulation with Nigericin 3.75 µM or MSU 150 µg/ml for 3 h.
as §1, §2

Compound	inhibition of IL-1β release in peritoneal lavage samples (FIG. 1) [1]	% IL-1 beta inhibition vs vehicle (peritoneal lavage samples) [1] [%]	IC50 [2] [µM]	IC50 [3] [µM]	IC50 [4] [µM]
CCOC(=O)C1(c2cc(C(C)(C)O)on2)CN=C(Nc2c3c(cc4c2CCC4)CCC3)O1 (single isomer, unassigned) [Example 16, Ethyl 2-((1,2,3,5,6,7-hexahydro-s-indacen-4-yl)amino)-5-(5-(2-hydroxypropan-2-yl)isoxazol-3-yl)-4,5-dihydrooxazole-5-carboxylate]	significant inhibition	99	< 1	< 1	< 1
CC(C)(O)c1cc(C2(C(=O)O)CN=C(Nc3c4c(cc5c3CCC5)CCC4)O2)no1 (centres unmarked) [Example 23, 2-((1,2,3,5,6,7-hexahydro-s-indacen-4-yl)amino)-5-(5-(2-hydroxypropan-2-yl)isoxazol-3-yl)-4,5-dihydrooxazole-5-carboxylic acid]	significant inhibition	>99		1 to 10	< 1
O=C(O)C1(c2ccon2)CN=C(Nc2c3c(cc4c2CCC4)CCC3)O1 (centres unmarked) [Example 29, 2-((1,2,3,5,6,7-hexahydro-s-indacen-4-yl)amino)-5-(isoxazol-3-yl)-4,5-dihydrooxazole-5-carboxylate]			< 1	1 to 10	
CCOC(=O)C1(c2ccon2)CN=C(Nc2c3c(cc4c2CCC4)CCC3)O1 (single isomer, unassigned) [Example 21Bb]		73	< 1	< 1	
